# Source: patent US6518450B2, “Guaiacoxypropanolamines with alpha/beta adrenergic blocking activity” (priority 1997, dated 2003)
# Read-outs that look alike come from different tables or passages of the source. Marks after values point to notes of the source that are not given here.
# Experiments:
# [1] = tested on: β1-adrenoceptor; conditions: versus isoproterenol, pulsating rate of right atrium; Schild plot regression; six to eight experiments
# From the text: A 300˜450 gram guinea pig is obtained and hit forcefully at the head to put it into comatose, the artery at the neck is cut to release the blood, then the chest is immediately cut open, and the heart quickly retrieved and placed in Krebs solution that is connected to mixed gas(95% oxygen, 5% carbon dioxide), and the left, right auricles separated. The right auricle, which is pulsating in reflex action, is pinned down on both ends by a frog-heart tweezer, and one end stabilized at the bottom and placed in an organ rinser filled with 10 milliliter of Krebs solution with the mixed gas, and the temperature maintained at 32.5[…]; the other end is connected to the force transducer, and the isometric contractions and pulsating frequency are recorded through the Coulbourn At-High-Speed Videograph. The specimen is given tension between 100-150 milligrams, and upon balancing, the following experiment is conducted:
# In order to evaluate the degree of vivacity of the β-blockade on the synthetic compounds, for each detached auricle in reflex pulsation, upon balancing(approximately 60 minutes), the cumulative-concentration curve of the β-agonist isoproterenol is completed twice separately. The experiment is designed as follows: <1>The first curve indicates direct application of isoproterenol from low concentration to high using 0.5 log unit to gradually increase until it reaches the maximum reaction; this is the control unit. <2>the second curve is the experimental unit. Different concentrations of synthetic testing compounds(10^−7 M, 10^−6 M, or 10^−5 M), from low concentration to high, are given 30 minutes to react before isoproterenol is used to complete the cumulative prescription. The EC50 value is obtained from observation of the suppressing effects generated from different concentrations of synthetic testing compounds.
# According to the method used by Arunlakshana and Schild in 1959, the corresponding values of the synthetic testing compounds are used as the horizontal coordinate, and the corresponding values on the first derivative of the dose ratio are used as the vertical coordination, the values obtains are graphed and linear regression is implemented to obtain a regressed straight-line horizontal coordinate's extracted distance value, which is the pA2 value for this particular synthetic testing compound.
# [2] = tested on: pentobarbital-anesthetized normotensive rats; conditions: mean ± S.E. (n=6)
# Experimental: A male Wistar Strain, weighing 300˜450 grams, is administered with 40 mg/kg of pentobarbital sodium via hypodermic syringe for anesthesia before implementing trachea dissection and inserting respiratory tube to ensure the animal maintains smooth breath during operation, while also facilitating emergency rescue. The tube insertion is done with a polyethylene tube (PE50), with inner diameter of […] and outer diameter of 0.97 mm, on the femoral vein to facilitate administering medication during the experiment; a 3-way stopcock is used by connecting one end to the medicated bottle, while the other end is connected to the saline solution bottle, thus some saline solution can be injected right after administering the medication to prevent the medication from lingering in the polyethylene tube (PE50) that may affect the accuracy of the experiment. The left artery is also inserted with the polyethylene tube(PE50) by using the same 3-way stopcock with one end connected to heparin solution as the polyethylene tube (PE50) is equipped with a valve to clear any blockage in the path; the other end is connected to disposable diaphgram dome (TA1019), which is then connected to the data converter, and through an amplifier, and then finally through the recorder to record the medication's impact on the male Wistar Strain's blood pressure and heartbeat. The Wistar Strain is given different dosages of test medication in 1.0, 1.5, 3.0 mg/kg respectively through intravenous injection to examine the medication's effects on heartbeat and blood pressure.
# [3] = tested on: α-adrenoceptor; conditions: versus L-phenylephrine contraction of detached chest artery; Schild plot regression
# Experimental: Same as the blood vein relaxation experiment, detached primary artery taken from the guinea pig is given 1 gram of tension, and upon balancing for 60 minutes, L-phenylephrine is administered directly from low concentration to high using 0.5 log unit to gradually increase until the maximum reaction is reached, and this act as the control unit. Then different concentrations of the synthetic testing compound, 10^−7 M, 10^−6 M, or 10^−5 M, are used, and upon 30 minutes of reaction, L-phenylephrine is used again to complete the cumulative dose. The EC50 value may be obtained from observation of the suppressing effects caused by different concentrations of the synthetic testing compound.
# It is same as the calculation method used in the experiment of the detached right auricle.
# [4] = target: T1, β2-adrenoceptor (Cavia porcellus, UniProt Q8K4Z4); assay: β2 adrenergic blockade against isoproterenol, isolated guinea pig respiratory tract (Schild plot); conditions: versus isoproterenol relaxation of detached respiratory tract; Schild plot regression
# T1 construct: from tissue; host or cells: isolated guinea pig trachea (spiral strips, reserpine-pretreated animal)
# Experimental: 300-450 gram guinea pig is obtained, and 5 mg/kg reserpine is injected on the belly 18˜24 hours prior to the experiment. Upon hitting the guinea pig into comatose, the artery at the neck is cut and the blood released, and the chest is immediately cut open and the respiratory tract (approximately 4 centimeters long) is taken along the neck and placed in a cultivation dish containing Krems solution at room temperature and connected to mixed gas of 95% oxygen and 5% carbon dioxide. The surrounding tissues are carefully removed, then the respiratory tract is cut to spiral shape that contains 3 to 4 bone coils at each turn, and then cut in two halves, with the two sides clamped by the frog-heart tweezer; one end is stabilized at the bottom and placed in the organ rinser filled with 20 ml of Krebs solution with mixed gas and the temperature maintained at 32° C.; the other side is connected to the force transducer, and even-length isometric contraction is recorded through the Coulbourn At-High-Speed Videograph. The sample is given 2 grams of tension, and upon balancing, the following experiment is conducted.
# The respiratory tract used in the experiment is first balanced (approximately one hour) to derive a reflex tension, and then for each half of the respiratory tract, cumulative concentration-response curve for the isoproterenol is completed twice. In the first curve, no synthetic testing compound is added, and is used as the control unit; in the second curve, the synthetic compound first added for an hour before implementing the cumulative concentration-response curve, which is the experimental unit.
# [5] = tested on: β1-adrenoceptor; conditions: versus isoproterenol, contraction of left atrium; Schild plot regression; six to eight experiments
# Experimental: The stimulating frequency is 0.5 Hz, resting tension is 0.5 grams. Upon balancing(approximately 50 minutes) the following experiment is conducted;
# (a) Completion of the cumulative concentration-response curves, which is similar to the experimenting methods use on the same detached right auricle.
# (b) The calculation of pA2 value is same as the calculation method used in the experiment of the detached right auricle.
# [6] = tested on: isolated guinea pig thoracic aorta; conditions: 10 μM L-phenylephrine contraction, mean ± S.E. (n=6)
# From the text: A 300-450 gram guinea pig is obtained, and forcefully hit at the head, and blood drained from the artery at the neck to quickly retrieve the main chest artery, which is placed in chilled Kreb solution and the fatty tissue clung to the vicinity of the blood vein is carefully removed, and then the main chest artery is trimmed to a circular shape of approximately 5 mm. Two S-shaped platinum threads are used to stabilize the top and bottom of the main artery before placing it in a 10-milliliter organ tank with 95% oxygen and 5% carbon dioxide mixed gas. One end is connected to the bottom of the organ tank, and the other end connected to the force transducer, and a recorder is used to record the isometric contraction. The specimen is given one gram of tension, and after balancing for 60 minutes, 10 μM of phenylephrine is prescribed to test the vivacity of the main chest artery. Upon balancing and the phenylephrine rinsed off, 10 μM of phenylephrine is used again to achieve the maximum contraction. And upon balancing, different concentration of synthetic testing compounds are used, 10^−5 M, 10^−6 M, or 10^−7 M, to observe the suppressing effects resulted from different concentrations of synthetic testing compounds.
# T1 sequence (Q8K4Z4 whole entry): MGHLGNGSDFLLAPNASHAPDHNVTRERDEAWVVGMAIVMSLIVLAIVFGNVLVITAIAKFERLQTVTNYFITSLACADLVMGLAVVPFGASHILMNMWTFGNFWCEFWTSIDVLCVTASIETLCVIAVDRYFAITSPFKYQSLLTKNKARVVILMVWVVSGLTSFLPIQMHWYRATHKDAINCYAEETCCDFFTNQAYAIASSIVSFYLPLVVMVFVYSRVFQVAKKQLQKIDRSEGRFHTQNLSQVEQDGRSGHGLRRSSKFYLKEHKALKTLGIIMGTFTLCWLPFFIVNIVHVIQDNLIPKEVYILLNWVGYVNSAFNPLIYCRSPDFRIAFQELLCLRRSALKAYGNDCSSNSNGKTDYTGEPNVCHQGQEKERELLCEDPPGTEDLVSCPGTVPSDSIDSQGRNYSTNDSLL
PA2 value β2 [4],SMILES,PA2 value β1 right atrium [1],Blood pressure change ([2]; 1 mg/kg intravenous),Blood pressure change ([2]; 1.5 mg/kg intravenous),Blood pressure change ([2]; 3 mg/kg intravenous),PA2 value α [3],PA2 value β1 left atrium [5],percentage of relaxation in comparison with the basal value ([6]; 10^−5 M),percentage of relaxation in comparison with the basal value ([6]; 10^−6 M),percentage of relaxation in comparison with the basal value ([6]; 10^−4 M)
6.59,"C=CCc1ccc(OCC(O)CNCCOc2ccccc2OC)c(OC)c1 (stereo not shown) [Compound 1, 1-[(4-allyl-2-methoxy)phenoxy}-3-[(2-methoxyphenoxyethyl)amino}-propanol]",7.83,−23.1 ± 4.5 mmHg,−30.1 ± 3.6 mmHg,−38.1 ± 5.1 mmHg,8.12,7.95,−51.7 ± 6.8%,−39.7 ± 9.1%,−62.8 ± 8.7^a %
6.13,"CC=Cc1ccc(OCC(O)CNCCOc2ccccc2OC)c(OC)c1 (stereo not shown) [Compound 4, 1-[(4-propenyl-2-methoxy)-phenoxy]-3-[(2-methoxyphenoxyethyl)amino]-propanol]",7.63,−24.9 ± 3.2 mmHg,−29.5 ± 5.1 mmHg,−36.4 ± 7.2 mmHg,7.20,7.89,−30.1 ± 3.6%,−23.4 ± 3.7%,
7.05,"CCOC(=O)C=Cc1ccc(OCC(O)CNCCOc2ccccc2OC)c(OC)c1 (stereo not shown) [Compound 2, 1-[(4-propenoic acid ethyl ester-2-methoxy)phenoxy]-3-[(2-methoxyphenoxyethyl)amino]-propanol]",8.02,−37.5 ± 5.2 mmHg,−44.2 ± 8.0 mmHg,−52.4 ± 4.5 mmHg,7.95,8.16,−42.1 ± 9.1%,−35.9 ± 7.9%,

SMILES,PA2 value β2 [4],PA2 value β1 right atrium [1],Blood pressure change ([2]; 1 mg/kg intravenous),Blood pressure change ([2]; 1.5 mg/kg intravenous),Blood pressure change ([2]; 3 mg/kg intravenous),PA2 value α [3],PA2 value β1 left atrium [5],percentage of relaxation in comparison with the basal value ([6]; 10^−5 M),percentage of relaxation in comparison with the basal value ([6]; 10^−6 M),percentage of relaxation in comparison with the basal value ([6]; 10^−4 M)
CCCCCCCCC(=O)NCc1ccc(OCC(O)CNCCOc2ccccc2OC)c(OC)c1 (stereo not shown) [Compound 3],6.81,7.80,−32.6 ± 5.5 mmHg,−41.7 ± 4.0 mmHg,−52.0 ± 8.0 mmHg,7.12,7.61,−40.7 ± 8.4%,−34.5 ± 4.2%,
